Results as given in US7015231B2, “Chemical compounds” (SmithKline Beecham Corporation, priority 2001, dated 2006).

target: T1, TrkA (Homo sapiens, UniProt P04629); assay: TrkA substrate phosphorylation assay (tyrosine kinase activity, synthetic peptide substrate, 33P-ATP, p81 filter plates); assay type: biochemical; details: GST-fusion of the TrkA intracellular domain, 30 uM ATP, 50 uM Src peptide, RT for 120′
T1 construct: The enzyme is a GST-fusion of the intracellular domain expressed in SF9 cells; GST; purchased Regeneron; host or cells: SF9 cells
T1 sequence (P04629 440-796 limits assumed, species assumed): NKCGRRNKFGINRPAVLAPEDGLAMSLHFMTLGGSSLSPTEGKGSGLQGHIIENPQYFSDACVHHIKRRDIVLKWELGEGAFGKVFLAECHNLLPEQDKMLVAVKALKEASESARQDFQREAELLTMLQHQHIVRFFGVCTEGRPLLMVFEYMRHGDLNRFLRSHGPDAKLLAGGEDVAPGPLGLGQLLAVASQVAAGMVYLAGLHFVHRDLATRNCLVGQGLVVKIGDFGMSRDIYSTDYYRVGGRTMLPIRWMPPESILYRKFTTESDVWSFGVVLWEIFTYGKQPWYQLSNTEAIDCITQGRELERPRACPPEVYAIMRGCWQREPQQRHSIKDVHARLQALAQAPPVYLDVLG
Procedure: Substrate phosphorylation assays were carried out as follows:
The enzyme is a GST-fusion of the intracellular domain expressed in SF9 cells. The enzyme is expressed and purified by Regeneron. The enzyme is preincubated with cold ATP and Mg to allow autophosphorylation prior to running the screen. […] The assay is performed in 96 well microtitre plates, and reaction products are detected following filtration through millipore p81 phosphocellulose plates.

| IC50 [nM] | SMILES |
| --- | --- |
| < 10 | Cn1cc(C=C2C(=O)Nc3ncccc32)c2ccccc21 [Example 4] |
| < 10 | O=C1Nc2ncccc2C1=Cc1c[nH]c2ccccc12 [Example 5] |
| < 10 | COc1ccccc1-c1cc(C=C2C(=O)Nc3ncc(Br)cc32)cc(Br)c1O [Example 1, 3-(3-Bromo-4-hydroxy-5-(2′methoxyphenyl)-benzylidene)-5-bromo-1,3-dihydro-pyrrolo[2,3-b]pyridin-2-one] |
| 10 to 250 | O=C1Nc2cccnc2C1=Cc1c[nH]c2ccccc12 [Example 3] |
